Experiments:
Assay type in all cases: in vivo, mouse
[1] = tested on: colitis in Scid mice injected with cells of IL-10 deficient Balb/c mice; assay: Therapeutic effect on inflammatory bowel disease: colon weight in cell-transfer colitis mice fed experimental diet; parameters: Colon weight Mean: unit not given here; conditions: three weeks after cell transfer
Method: Balb/c background IL-10 deficient mice were established from C57BL/6 background IL-10 deficient mice by back-crossing for seventh generations. […] Spleen, mesenteric lymph nodes and sacral lymph nodes were collected from the IL-10 gene-deficient Balb/c mice (male) which had developed the colitis detected by observing the diarrhea symptoms. After preparing single cell suspensions, the cells at about 1×10^7 were injected intraperitoneally to Scid mice which were immunodeficiency mice (hereinafter the Scid mouse injected IP was referred to as an “experiment mouse”). Subsequently, a chow was changed to an experimental diet. At a time point three weeks after cell transfer, the mice were killed, the colon was collected, the intestinal contents were washed out, and its weight was measured. A percentage of inhibiting a weight gain of the colon was calculated by the following formula. Percentage of inhibiting a weight gain of colon=[1−(Colon weight in target group−Colon weight in cell transfer group)/(Colon weight in standard chow group−Colon weight in cell transfer group)]×100(%)
An amino acid mixture A is composed of the following amino acids (% by weight is represented in terms of free amino acid).

TNF-α mRNA = assay: Inhibitory effect on TNF-α production: quantitative RT-PCR of colon TNF-α mRNA; conditions: colon after three weeks
Method: (§1) The experimental diet obtained by mixing the amino acids shown in Table 6 with the standard chow was given to the experiment mice, and after three weeks, the colon was removed. A colon sample was homogenized with 500 μL of Isogen (Nippon Gene). The homogenate mixed with 100 μL, of chloroform was centrifuged at 15,000 rpm at 4° C. and an aqueous layer was collected. An equivalent amount of 2-propanol was added thereto, which was then centrifuged at 15,000 rpm at 4° C. A resulting pellet was washed with 70% (v/v) ethanol, dried in air and dissolved in water treated with DEPC.
All reagents used were from Invitrogen. 0.5 μg Of total RNA and 0.5 μg of oligo (dT) were dissolved in 12 μL of DEPC-treated water, heated at 70° C. for 10 minutes, and cooled on ice for one minute. Subsequently, 4 μL of 5×1st strand buffer, 1 μL of 10 mM dNTP mix and 2 μL of 100 mM DTT were added thereto. The mixture was reacted at 42° C. for 5 minutes. 1 μL (200 U) of SuperScriptII was added, and the mixture was reacted at 42° C. for 50 minutes and 70° C. for 15 minutes.
(§2) A gene expression assay based on PCR was performed using SYBR Green PCR Master Mix (Applied Biosystems) and ABI PRISM 7700 System. SYBR Green PCR Master Mix comprises SYBR Green and heat resistant DNA polymerase, and detects fluorescence generated by specifically binding SYBR Green to a double strand DNA amplified by PCR using ABI PRISM 7700 System. Gene expression amounts of the samples can be compared by comparing the numbers of PCR cycles at which a significant fluorescence signal is detected for the first time. The cDNA corresponding to 10 ng of total RNA was used as a template of the quantitative PCR, and n=2 or more per sample of measurements were performed. A forward primer and a reverse primer at each 7.5 pmol of each gene were added to 7.5 μL of SYBR Green PCR Master Mix (Applied Biosystems), and the total volume was made to be 15 μL with water. The PCR was performed by 40 cycles of the reaction at 95° C. for 10 seconds, 60° C. for 30 seconds and 72° C. for 30 seconds after reacting at 95° C. for 10 minutes. The sequences of the primers used for the quantitative RT-PCR are as follows.
An inhibitory rate of TNF-α mRNA expression was calculated from the following formula. Inhibitory rate of TNF-α mRNA expression=[1−Relative amount of TNF-α mRNA expression in target group−Relative amount of TNF-α mRNA expression in cell transfer group)/(Relative amount of TNF-α mRNA expression in standard chow group−Relative amount of TNF-α mRNA expression in cell transfer group)]×100(%)

Reg3γ mRNA = assay: Quantitative RT-PCR of colon Reg3γ mRNA; conditions: 5% in standard chow, colon after three weeks
Method: as §1
(§3) All reagents used were from Invitrogen. […]
as §2, with “A forward primer and a reverse primer at each 7.5 pmol of each gene were added to 7.5 μL of SYBR Green PCR Master Mix (Applied Biosystems), and the total volume was made to be 15 μL with water. The PCR was performed by 40 cycles of the reaction at 95° C. for 10 seconds, 60° C. for 30 seconds and 72° C. for 30 seconds after reacting at 95° C. for 10 minutes.” left out, “follows. […]” for “follows.”

Groα mRNA = assay: Quantitative RT-PCR of colon Groα mRNA; conditions: 5% in standard chow, colon after three weeks
Method: as §1, §3
as §2, with “A forward primer and a reverse primer at each 7.5 pmol of each gene were added to 7.5 μL of SYBR Green PCR Master Mix (Applied Biosystems), and the total volume was made to be 15 μL with water. The PCR was performed by 40 cycles of the reaction at 95° C. for 10 seconds, 60° C. for 30 seconds and 72° C. for 30 seconds after reacting at 95° C. for 10 minutes.” left out, “follows. […]” for “follows.”

[2] = Mus musculus, po, 504 h, 5% in standard chow, read-out: Rate of inhibiting weight gain of colon (%)

Row | SMILES | Colon weight Mean ([1]; 5% in standard chow) | inhibition in vivo at 5 % [1, 2] | Inhibitory rate of TNF-α mRNA expression (%) (TNF-α mRNA; 5% in standard chow) | other results
1 | NC(=O)CC[C@H](N)C(=O)O [Example 1, glutamine] | 530.5 | 22.5% | – | –
2 | NCCCC[C@H](N)C(=O)O [Example 2, lysine] | 392.8 | 48.5% | – | –
3 | N[C@@H](Cc1c[nH]cn1)C(=O)O [Example 3, histidine] | 429.0 | 37.8% | 54% | Inhibitory rate of Reg3γ mRNA Expression (%) (Reg3γ mRNA): 84%; Inhibitory rate of Groα mRNA Expression (%) (Groα mRNA): 70%
4 | N[C@@H](CS)C(=O)O [Example 4, cysteine] | – | 42.1% | – | –
5 | NCC(=O)O [Example 5, glycine] | 437.1 | – | – | Rate of inhibiting weight gain of colon (%) ([1]; 5% in standard chow): 37.4%
6 | N[C@@H](Cc1c[nH]c2ccccc12)C(=O)O [Example 6, tryptophan] | – | 92.7% | 49% | Colon weight Mean ([1]; 2% in standard chow): 425.6; inhibition in vivo at 2 % ([1]; Mus musculus, po, 504 h, 2% in standard chow, read-out: Rate of inhibiting weight gain of colon (%)): 41.9%; Inhibitory rate of TNF-α mRNA expression (%) (TNF-α mRNA; 2% in standard chow): 33%
7 | CSCC[C@H](N)C(=O)O [Example 7, methionine] | 307.7 | 73.1% | – | –
8 | N[C@@H](Cc1ccccc1)C(=O)O [Example 12, phenylalanine] | 392.8 | 48.5% | 84% | –
9 | C[C@@H](O)[C@H](N)C(=O)O [Example 13, threonine] | 468.2 | 28.8% | – | –

Reference: patent US8168669B2, “Therapeutic agent for inflammatory bowel disease and TNF-α production inhibitor” (Ajinomoto Co., Inc., priority 2005, dated 2012)
